The target of one assay is T1, ALK5 (Homo sapiens, UniProt P36897).
T1 construct: purchased Reaction Biology Corp (Malvern, Pa.)
T1 sequence (P36897 34-503): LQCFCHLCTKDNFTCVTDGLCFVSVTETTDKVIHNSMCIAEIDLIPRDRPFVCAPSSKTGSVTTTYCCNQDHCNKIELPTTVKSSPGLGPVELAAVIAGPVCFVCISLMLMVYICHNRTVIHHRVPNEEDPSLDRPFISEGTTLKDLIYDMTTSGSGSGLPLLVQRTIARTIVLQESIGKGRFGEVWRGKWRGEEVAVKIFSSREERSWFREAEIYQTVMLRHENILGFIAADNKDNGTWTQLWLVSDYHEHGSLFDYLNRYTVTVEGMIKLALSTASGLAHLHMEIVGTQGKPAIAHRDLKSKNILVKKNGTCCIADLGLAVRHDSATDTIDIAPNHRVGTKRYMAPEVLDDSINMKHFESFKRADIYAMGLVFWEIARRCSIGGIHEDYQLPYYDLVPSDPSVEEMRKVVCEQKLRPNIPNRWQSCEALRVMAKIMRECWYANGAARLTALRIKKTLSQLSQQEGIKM
The assay is described as follows: ALK5 enzyme inhibition assay (casein substrate, 10 uM ATP, 33P-ATP, filter-binding; Reaction Biology Corp). Type of assay: biochemical. The settings on record: Table 11. How it is done:
ALK5 enzyme inhibition assays were performed by Reaction Biology Corp (Malvern, Pa.). 1 mg/mL of peptide substrate (casein) and 10 uM ATP were prepared in a mixture of fresh reaction buffer. The kinase was delivered into the substrate solution which was gently mixed. Compounds in 100% DMSO were added to the kinase reaction mixture by Acoustic technology (Echo550; nanoliter range) and the mixture was incubated for 20 min at room temperature. ^33P-ATP (Specific activity 10 uCi/uL) was added into the reaction mixture to initiate the reaction and the reaction mixture was incubated for 2 hours at room temperature. Radioactivity was detected by filter-binding method and kinase activity data were expressed as the percent remaining kinase activity in test samples compared to vehicle (dimethyl sulfoxide) reactions. IC50 values and curve fits were obtained using Prism (GraphPad Software).

Assay [1] has as its system TGFβ/SMAD Signaling Pathway SBE reporter cell line. Put plainly: TGFb reporter assay in HEK293 SBE-LUC reporter cells (luciferase). It is filed as cell-based. The note with it: Homo sapiens, key of the table says IC50, read-out: EC50 (the source's name). The method, then: TGFβ/SMAD Signaling Pathway SBE reporter cell line was obtained from BPS Bioscience. Cells are passed, expanded, and stored in liquid nitrogen as per the supplier's instructions with the exception that growth media is changed to DMEM-C with Geneticin (DMEM supplemented with 10% fetal bovine serum, 1×NEAA, 1 mM Pyruvate, 2 mM glutamine, 50 μg/mL penicillin, 50 U/mL streptomycin and 400 μg/mL of Geneticin). The assay media is MEM supplemented with 0.5% fetal bovine serum, 1×NEAA, 1 mM Pyruvate, 50 μg/mL penicillin and 50 U/mL streptomycin.
Compounds are assayed to measure their activity as ALK5 inhibitors.
The HEK293 SBE-LUC reporter cells from Example 15 were grown in DMEM-C with Geneticin (DMEM supplemented with […], 1×NEAA, 1 mM Pyruvate, 2 mM glutamine, 50 μg/mL penicillin, 50 U/mL streptomycin and 400 ug/mL of Geneticin). The assay media was MEM supplemented with 0.5% fetal bovine serum, 1×NEAA, 1 mM Pyruvate, 50 μg/mL penicillin and 50 U/mL streptomycin.
The HEK293 SBE-LUC reporter cells were harvested from the tissue culture flasks by incubation in small quantity of Versene at room temperature for three to five minutes after the media in the flask is removed and cells rinsed with PBS. Cells were counted and diluted in the assay media at ˜0.8×10^6 cells/mL then 50 uL/well were added to 96-well assay plate. Test samples (at desired concentrations diluted in assay media) were added to assay plate containing the 50 uL/well of cells (or media only), 50 uL per well, and incubated for 5-6 hours at 37° C. in a 5% CO2 humidified incubator. After that time, 15 uL of TGFb diluted to 12.5 ng/mL in the assay media was added to the plate. Controls included TGFb titration (from 25 to 0 ng/mL) without inhibitors, and media only (without cells, inhibitor or TGFb). Plates were incubated at 37° C. in a 5% CO2 humidified incubator for 18h. Luciferase substrate solution was subsequently added at 75 uL per well, incubated in dark with shaking at room temperature for 10 min, and luminescence was measured using a luminometer.
(A reporter such as luciferase makes a cellular process visible.)

In the case of `Cc1cccc(-c2nc(CNCc3ccccc3C(O)C(F)(F)F)[nH]c2-c2ccc3ncnn3c2)n1` (centres unmarked) [Compound 28], the IC50 fell in the range of 0.1 to 50 nM at ALK5 and 0.1 to 10 nM in assay [1].

As to `Cc1cccc(-c2nc(CNCc3ccccc3-c3ccccc3CNC(=O)OC(C)(C)C)[nH]c2-c2ccc3ncnn3c2)n1` [Compound 29], the IC50 (on ALK5; in assay [1]) was 100 to 1000 nM each time.

For `Cc1cccc(-c2nc(CNCc3ccccc3-c3cccc(CNC(=O)OC(C)(C)C)c3)[nH]c2-c2ccc3ncnn3c2)n1` [Compound 30], the IC50 (on ALK5; in assay [1]) was 100 to 1000 nM in each case.

Turning to `Cc1cccc(-c2nc(CNCc3ccccc3-c3ccc(CNC(=O)OC(C)(C)C)cc3)[nH]c2-c2ccc3ncnn3c2)n1` [Compound 31], the IC50 (at ALK5; in assay [1]) was 100 to 1000 nM throughout.

In the case of `Cc1cccc(-c2nc(CNCc3ccccc3-c3ccccc3CN)[nH]c2-c2ccc3ncnn3c2)n1` [Compound 32], the IC50 (at ALK5; in assay [1]) was 100 to 1000 nM in each case.

On to `Cc1cccc(-c2nc(CNCc3ccccc3-c3cccc(CN)c3)[nH]c2-c2ccc3ncnn3c2)n1` [Compound 33], for which the IC50 (at ALK5; in assay [1]) was 100 to 1000 nM in each case.

For `Cc1cccc(-c2nc(CNCc3ccccc3-c3ccc(CN)cc3)[nH]c2-c2ccc3ncnn3c2)n1` [Compound 34], the IC50 (on ALK5; in assay [1]) was 100 to 1000 nM throughout.

As to `Cc1cccc(-c2nc(CNCc3ccccc3-c3ccc(F)cc3)[nH]c2-c2ccc3ncnn3c2)n1` [Compound 35], the IC50 lay in the range of 0.1 to 50 nM on ALK5 and 0.1 to 10 nM in assay [1].

In the case of `Cc1cccc(-c2nc(CNCc3ccccc3-c3ccc(F)c(F)c3)[nH]c2-c2ccc3ncnn3c2)n1` [Compound 36], the IC50 at ALK5 was in the range of 50 to 100 nM; in assay [1], 10 to 100 nM.

For the compound `Cc1cccc(-c2nc(CNCc3ccccc3-c3cccc(F)c3)[nH]c2-c2ccc3ncnn3c2)n1` [Compound 37], the IC50 at ALK5 was in the range of 50 to 100 nM; in assay [1], 10 to 100 nM.

On to `Cc1cccc(-c2nc(CNCc3ccccc3-c3ccccc3F)[nH]c2-c2ccc3ncnn3c2)n1` [Compound 38], for which the IC50 was in the range of 0.1 to 50 nM at ALK5 and 0.1 to 10 nM in assay [1].

For the compound `Cc1cccc(-c2nc(CNCc3ccccc3-c3cc(F)cc(F)c3)[nH]c2-c2ccc3ncnn3c2)n1` [Compound 39], the IC50 at ALK5 was 0.1 to 50 nM; in assay [1] it was 10 to 100 nM.

With `Cc1cccc(-c2nc(CNCc3ccccc3-c3ccccn3)[nH]c2-c2ccc3ncnn3c2)n1` [Compound 40], the results for the IC50 (at ALK5; in assay [1]) were 100 to 1000 nM and 10 to 100 nM, respectively.

With `Cc1cccc(-c2nc(CNCc3ccccc3-c3cccnc3)[nH]c2-c2ccc3ncnn3c2)n1` [Compound 41], the IC50 lay in the range of 50 to 100 nM at ALK5 and 0.1 to 10 nM in assay [1].

Regarding `Cc1cccc(-c2nc(CNCc3ccccc3-c3ccncc3)[nH]c2-c2ccc3ncnn3c2)n1` [Compound 42], the results for the IC50 (at ALK5; in assay [1]) were 100 to 1000 nM and 10 to 100 nM, respectively.

As to `Cc1cccc(-c2nc(CNCc3ccccc3C3CCCCC3)[nH]c2-c2ccc3ncnn3c2)n1` [Compound 43], the IC50 (on ALK5; in assay [1]) was 100 to 1000 nM each time.

With `Cc1cccc(-c2nc(CNCc3ccccc3C3CCCC3)[nH]c2-c2ccc3ncnn3c2)n1` [Compound 44], the IC50 at ALK5 fell in the range of 100 to 1000 nM; in assay [1] it was 10 to 100 nM.

`Cc1cccc(-c2nc(CNCc3cccc(C)c3C)[nH]c2-c2ccc3ncnn3c2)n1` [Compound 45]: the IC50 on ALK5 is 50 to 100 nM; in assay [1], 0.1 to 10 nM.

Regarding `COc1cccc(CNCc2nc(-c3cccc(C)n3)c(-c3ccc4ncnn4c3)[nH]2)c1C` [Compound 46], the IC50 at ALK5 lay in the range of 50 to 100 nM; in assay [1] it was 0.1 to 10 nM.

As to `Cc1cccc(-c2nc(CNCc3cccc(Cl)c3C)[nH]c2-c2ccc3ncnn3c2)n1` [Compound 47], the IC50 at ALK5 lay within 0.1 to 50 nM; in assay [1], 0.1 to 10 nM.

As for `Cc1cccc(-c2nc(CNCc3cccc(C)c3-c3ccccc3)[nH]c2-c2ccc3ncnn3c2)n1` [Compound 48], the values for the IC50 (on ALK5; in assay [1]) were 0.1 to 50 nM and 10 to 100 nM, respectively.

Regarding `Cc1cccc(-c2nc(CNCc3cccc(-c4ccccc4)c3C)[nH]c2-c2ccc3ncnn3c2)n1` [Compound 49], the IC50 at ALK5 lay within 100 to 1000 nM; in assay [1] it was 10 to 100 nM.

Turning to `Cc1cccc(CNCc2nc(-c3cccc(C)n3)c(-c3ccc4ncnn4c3)[nH]2)c1` [Compound 50], the IC50 was 100 to 1000 nM at ALK5 and 10 to 100 nM in assay [1].

`Cc1cccc(-c2nc(CNCc3cccc(-c4ccccc4)c3)[nH]c2-c2ccc3ncnn3c2)n1` [Compound 51]: the IC50 (at ALK5; in assay [1]) was 100 to 1000 nM each time.

As to `Cc1cccc(-c2nc(CNCCc3ccccc3)[nH]c2-c2ccc3ncnn3c2)n1` [Compound 52], the IC50 at ALK5 was in the range of 50 to 100 nM; in assay [1] it was 0.1 to 10 nM.

Regarding `Cc1cccc(-c2nc(CNCc3ccccc3Oc3ccccc3)[nH]c2-c2ccc3ncnn3c2)n1` [Compound 53], the IC50 on ALK5 lay within 0.1 to 50 nM; in assay [1], 0.1 to 10 nM.

As to `Cc1cccc(-c2nc(CNCc3ccccc3Oc3cccnc3)[nH]c2-c2ccc3ncnn3c2)n1` [Compound 54], the IC50 lay in the range of 50 to 100 nM on ALK5 and 0.1 to 10 nM in assay [1].

As to `Cc1cccc(-c2nc(CNCCc3ccccc3F)[nH]c2-c2ccc3ncnn3c2)n1` [Compound 59], the IC50 on ALK5 was 0.1 to 50 nM; in assay [1] it was 0.1 to 10 nM.

Turning to `Cc1cccc(-c2nc(CNCCc3cccc(F)c3)[nH]c2-c2ccc3ncnn3c2)n1` [Compound 61], the IC50 is 0.1 to 50 nM at ALK5 and 0.1 to 10 nM in assay [1].

`Cc1cccc(-c2nc(CNCCc3ccc(F)cc3)[nH]c2-c2ccc3ncnn3c2)n1` [Compound 62]: the IC50 is 100 to 1000 nM at ALK5 and 0.1 to 10 nM in assay [1].

Turning to `Cc1cccc(-c2nc(CNCCc3ccc(F)cc3F)[nH]c2-c2ccc3ncnn3c2)n1` [Compound 63], the IC50 on ALK5 is 100 to 1000 nM; in assay [1], 0.1 to 10 nM.

For the compound `Cc1cccc(-c2nc(CNCCCc3ccccc3)[nH]c2-c2ccc3ncnn3c2)n1` [Compound 64], the IC50 is 100 to 1000 nM on ALK5 and 0.1 to 10 nM in assay [1].

Turning to `Cc1cccc(-c2nc(CNCCOc3ccccc3)[nH]c2-c2ccc3ncnn3c2)n1` [Compound 65], the IC50 on ALK5 lay within 100 to 1000 nM; in assay [1], 0.1 to 10 nM.

In the case of `Cc1cccc(-c2nc(CNCCNc3ccccc3)[nH]c2-c2ccc3ncnn3c2)n1` [Compound 66], the results for the IC50 (on ALK5; in assay [1]) were 100 to 1000 nM and 0.1 to 10 nM, respectively.

Regarding `Cc1cccc(-c2nc(CNCCN(C)c3ccccc3)[nH]c2-c2ccc3ncnn3c2)n1` [Compound 67], the IC50 on ALK5 was 50 to 100 nM; in assay [1] it was 0.1 to 10 nM.

For the compound `Cc1cccc(-c2nc(CNCc3ccccc3-c3ccccc3)[nH]c2-c2ccc3ncccc3n2)n1` [Compound 68], the figures for the IC50 (on ALK5; in assay [1]) were 0.1 to 50 nM and 10 to 100 nM, respectively.

Take `Cc1cccc(-c2nc(CNCc3ccccc3-c3ccccc3)[nH]c2-c2ccnc3ccccc23)n1` [Compound 69]: the IC50 (on ALK5; in assay [1]) was 100 to 1000 nM in each case.

With `Cc1cccc(-c2nc(CNCc3ccccc3-c3ccccc3)[nH]c2-c2ccc3c(c2)OCO3)n1` [Compound 71], the IC50 at ALK5 is 0.1 to 50 nM; in assay [1], 100 to 1000 nM.

Take `Cc1cccc(-c2nc(CNCCc3c(F)cccc3F)[nH]c2-c2ccc3c(c2)OCO3)n1` [Compound 81]: the IC50 on ALK5 fell in the range of 0.1 to 50 nM; in assay [1], 10 to 100 nM.

As for `Cc1cccc(-c2nc(CNCCc3c(F)cccc3F)[nH]c2-c2ccc3nccnc3c2)n1` [Compound 82], the IC50 at ALK5 was in the range of 0.1 to 50 nM; in assay [1] it was 0.1 to 10 nM.

These data come from patent US20210130473A1, “TGFßR1 INHIBITOR-ASGR ANTIBODY CONJUGATES AND USES THEREOF” (Silverback Therapeutics, Inc., priority 2019, published 2021).
